Measurements taken from ChEMBL document CHEMBL3351789, “Triazolopyridines as selective JAK1 inhibitors: from hit identification to GLPG0634” (J Med Chem, 2014).
Converted amounts (≈) assume the structure as drawn.

Assays:
[1] = molecular target: T1, Tyrosine-protein kinase JAK1 (Homo sapiens, UniProt P23458); test: Inhibition of human recombinant JAK1
Homo sapiens [2] = species: Homo sapiens; test: Selectivity index, ratio of IC50 for human recombinant JAK2 to IC50 for human recombinant JAK1
Homo sapiens [3] = species: Homo sapiens; test: Selectivity index, ratio of IC50 for human recombinant JAK3 to IC50 for human recombinant JAK1
Homo sapiens [4] = species: Homo sapiens; test: Selectivity index, ratio of IC50 for human recombinant TYK2 to IC50 for human recombinant JAK1
[5] = Kinetic solubility of the compound at pH 7.4; settings: buffer
[6] = Plasma protein binding in rat
[7] = molecular target: T1, Tyrosine-protein kinase JAK1; test: Inhibition of JAK1 in human whole blood assessed as inhibition of IL-6-induced pSTAT1
[8] = molecular target: T2, Tyrosine-protein kinase JAK2 (Homo sapiens, UniProt O60674); test: Inhibition of JAK2 in human whole blood assessed as inhibition of GM-CSF-induced pSTAT5
[9] = Metabolic stability in rat liver microsomes assessed as compound remaining after 60 mins; format: ADME; settings: read-out: Stability
[10] = molecular target: T2, Tyrosine-protein kinase JAK2; test: Inhibition of human recombinant JAK2
[11] = molecular target: Tyrosine-protein kinase JAK3 (Homo sapiens, UniProt P52333); test: Inhibition of human recombinant JAK3
[12] = molecular target: Non-receptor tyrosine-protein kinase TYK2 (Homo sapiens, UniProt P29597); test: Inhibition of human recombinant TYK2
[13] = molecular target: Fibroblast growth factor receptor 3 (Homo sapiens, UniProt P22607); test: Inhibition of FGFR3 (unknown origin)
[14] = molecular target: Glycogen synthase kinase-3 beta (Homo sapiens, UniProt P49841); test: Inhibition of GSK3beta (unknown origin)
[15] = molecular target: Inhibitor of nuclear factor kappa-B kinase subunit beta (Homo sapiens, UniProt O14920); test: Inhibition of IKKbeta (unknown origin)
[16] = molecular target: Tyrosine-protein kinase Lck (Homo sapiens, UniProt P06239); test: Inhibition of LCK (unknown origin)
[17] = molecular target: MAP kinase-activated protein kinase 5 (Homo sapiens, UniProt Q8IW41); test: Inhibition of MAPKAPK5 (unknown origin)
[18] = molecular target: Mitogen-activated protein kinase 14 (Homo sapiens, UniProt Q16539); test: Inhibition of p38alpha (unknown origin)
[19] = Inhibition of PKA (unknown origin); design: species or system Homo sapiens
[20] = molecular target: Protein-tyrosine kinase 2-beta (Homo sapiens, UniProt Q14289); test: Inhibition of PYK2 (unknown origin)
[21] = molecular target: Receptor-interacting serine/threonine-protein kinase 2 (Homo sapiens, UniProt O43353); test: Inhibition of RIPK2 (unknown origin)
[22] = molecular target: Rho-associated protein kinase 1 (Homo sapiens, UniProt Q13464); test: Inhibition of ROCK1 (unknown origin)
[23] = molecular target: Tyrosine-protein kinase SYK (Homo sapiens, UniProt P43405); test: Inhibition of SYK (unknown origin)
[24] = molecular target: Mitogen-activated protein kinase kinase kinase 7 (Homo sapiens, UniProt O43318); test: Inhibition of TAK1 (unknown origin)
[25] = molecular target: Serine/threonine-protein kinase TBK1 (Homo sapiens, UniProt Q9UHD2); test: Inhibition of TBK1 (unknown origin)
[26] = molecular target: Cyclin-dependent kinase 2 (Homo sapiens, UniProt P24941); test: Inhibition of CDK2 (unknown origin)
[27] = Tmax in rat at 5 mg/kg, po; format: ADME, organism-based; design: dose 5 mg/kg, route oral; settings: in vivo
[28] = AUC (0 to infinity) in rat at 5 mg/kg, po; format: ADME, organism-based; design: time infinity, dose 5 mg/kg, route oral; settings: plasma
[29] = Half life in rat at 5 mg/kg, po; format: ADME, organism-based; design: dose 5 mg/kg, route oral; settings: in vivo

T2 sequence (O60674 whole entry): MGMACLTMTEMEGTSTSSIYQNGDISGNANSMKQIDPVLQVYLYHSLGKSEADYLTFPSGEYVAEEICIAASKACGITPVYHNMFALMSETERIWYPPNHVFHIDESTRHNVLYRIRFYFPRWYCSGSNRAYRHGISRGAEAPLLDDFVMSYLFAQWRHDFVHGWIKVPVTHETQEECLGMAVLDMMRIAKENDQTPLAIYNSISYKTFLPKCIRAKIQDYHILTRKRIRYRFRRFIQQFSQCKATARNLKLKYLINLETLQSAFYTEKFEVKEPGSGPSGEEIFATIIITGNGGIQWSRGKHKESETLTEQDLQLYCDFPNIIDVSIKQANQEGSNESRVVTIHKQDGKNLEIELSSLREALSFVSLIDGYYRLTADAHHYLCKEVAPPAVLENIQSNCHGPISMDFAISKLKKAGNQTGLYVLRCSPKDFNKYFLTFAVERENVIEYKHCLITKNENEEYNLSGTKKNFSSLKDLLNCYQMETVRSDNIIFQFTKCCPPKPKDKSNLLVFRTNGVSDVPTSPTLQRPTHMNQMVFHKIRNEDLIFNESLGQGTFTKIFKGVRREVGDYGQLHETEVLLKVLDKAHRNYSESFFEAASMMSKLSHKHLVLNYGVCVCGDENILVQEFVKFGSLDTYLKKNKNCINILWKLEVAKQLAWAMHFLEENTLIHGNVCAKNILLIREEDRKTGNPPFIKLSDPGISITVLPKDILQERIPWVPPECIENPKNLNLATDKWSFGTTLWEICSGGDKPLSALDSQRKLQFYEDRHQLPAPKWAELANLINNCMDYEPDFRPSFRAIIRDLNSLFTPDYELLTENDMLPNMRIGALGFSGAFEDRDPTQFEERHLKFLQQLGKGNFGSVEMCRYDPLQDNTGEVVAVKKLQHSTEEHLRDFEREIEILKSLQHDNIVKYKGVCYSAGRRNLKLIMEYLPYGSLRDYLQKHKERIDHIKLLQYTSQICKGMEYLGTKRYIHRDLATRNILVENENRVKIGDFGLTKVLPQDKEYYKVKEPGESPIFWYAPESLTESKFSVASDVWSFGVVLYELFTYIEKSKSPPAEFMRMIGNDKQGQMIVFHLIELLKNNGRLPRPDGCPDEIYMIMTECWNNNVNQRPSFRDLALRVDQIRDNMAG
T1 sequence (P23458 whole entry): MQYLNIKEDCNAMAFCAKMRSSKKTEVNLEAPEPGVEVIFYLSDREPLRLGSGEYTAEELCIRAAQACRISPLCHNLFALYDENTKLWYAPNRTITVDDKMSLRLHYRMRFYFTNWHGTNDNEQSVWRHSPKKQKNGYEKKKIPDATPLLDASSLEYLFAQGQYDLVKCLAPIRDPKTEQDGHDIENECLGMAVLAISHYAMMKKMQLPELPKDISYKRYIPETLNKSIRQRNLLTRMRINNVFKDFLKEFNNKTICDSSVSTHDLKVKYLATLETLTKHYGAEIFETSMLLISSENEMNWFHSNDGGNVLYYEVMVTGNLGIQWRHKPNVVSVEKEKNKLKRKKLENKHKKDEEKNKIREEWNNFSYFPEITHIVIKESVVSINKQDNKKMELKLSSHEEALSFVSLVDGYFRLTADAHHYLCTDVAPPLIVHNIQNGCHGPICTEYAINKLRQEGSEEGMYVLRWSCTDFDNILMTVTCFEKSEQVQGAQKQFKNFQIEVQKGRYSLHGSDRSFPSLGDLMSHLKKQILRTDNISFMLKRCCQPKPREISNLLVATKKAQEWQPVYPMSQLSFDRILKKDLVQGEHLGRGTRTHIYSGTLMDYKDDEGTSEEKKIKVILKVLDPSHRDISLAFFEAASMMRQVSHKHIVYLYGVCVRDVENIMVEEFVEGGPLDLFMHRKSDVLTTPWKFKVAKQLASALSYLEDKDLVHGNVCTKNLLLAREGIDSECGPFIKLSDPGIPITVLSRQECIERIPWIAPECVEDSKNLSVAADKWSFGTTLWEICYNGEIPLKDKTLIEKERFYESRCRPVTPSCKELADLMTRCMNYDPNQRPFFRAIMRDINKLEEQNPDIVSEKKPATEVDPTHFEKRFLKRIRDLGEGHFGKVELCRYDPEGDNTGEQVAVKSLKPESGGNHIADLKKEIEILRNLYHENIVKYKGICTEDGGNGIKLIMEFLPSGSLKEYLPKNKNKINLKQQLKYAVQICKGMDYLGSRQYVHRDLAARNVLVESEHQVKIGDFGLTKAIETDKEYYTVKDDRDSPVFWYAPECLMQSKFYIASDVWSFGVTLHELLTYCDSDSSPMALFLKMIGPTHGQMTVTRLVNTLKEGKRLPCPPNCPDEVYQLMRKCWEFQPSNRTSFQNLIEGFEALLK
Sequence of Rho-associated protein kinase 1 (Q13464 whole entry): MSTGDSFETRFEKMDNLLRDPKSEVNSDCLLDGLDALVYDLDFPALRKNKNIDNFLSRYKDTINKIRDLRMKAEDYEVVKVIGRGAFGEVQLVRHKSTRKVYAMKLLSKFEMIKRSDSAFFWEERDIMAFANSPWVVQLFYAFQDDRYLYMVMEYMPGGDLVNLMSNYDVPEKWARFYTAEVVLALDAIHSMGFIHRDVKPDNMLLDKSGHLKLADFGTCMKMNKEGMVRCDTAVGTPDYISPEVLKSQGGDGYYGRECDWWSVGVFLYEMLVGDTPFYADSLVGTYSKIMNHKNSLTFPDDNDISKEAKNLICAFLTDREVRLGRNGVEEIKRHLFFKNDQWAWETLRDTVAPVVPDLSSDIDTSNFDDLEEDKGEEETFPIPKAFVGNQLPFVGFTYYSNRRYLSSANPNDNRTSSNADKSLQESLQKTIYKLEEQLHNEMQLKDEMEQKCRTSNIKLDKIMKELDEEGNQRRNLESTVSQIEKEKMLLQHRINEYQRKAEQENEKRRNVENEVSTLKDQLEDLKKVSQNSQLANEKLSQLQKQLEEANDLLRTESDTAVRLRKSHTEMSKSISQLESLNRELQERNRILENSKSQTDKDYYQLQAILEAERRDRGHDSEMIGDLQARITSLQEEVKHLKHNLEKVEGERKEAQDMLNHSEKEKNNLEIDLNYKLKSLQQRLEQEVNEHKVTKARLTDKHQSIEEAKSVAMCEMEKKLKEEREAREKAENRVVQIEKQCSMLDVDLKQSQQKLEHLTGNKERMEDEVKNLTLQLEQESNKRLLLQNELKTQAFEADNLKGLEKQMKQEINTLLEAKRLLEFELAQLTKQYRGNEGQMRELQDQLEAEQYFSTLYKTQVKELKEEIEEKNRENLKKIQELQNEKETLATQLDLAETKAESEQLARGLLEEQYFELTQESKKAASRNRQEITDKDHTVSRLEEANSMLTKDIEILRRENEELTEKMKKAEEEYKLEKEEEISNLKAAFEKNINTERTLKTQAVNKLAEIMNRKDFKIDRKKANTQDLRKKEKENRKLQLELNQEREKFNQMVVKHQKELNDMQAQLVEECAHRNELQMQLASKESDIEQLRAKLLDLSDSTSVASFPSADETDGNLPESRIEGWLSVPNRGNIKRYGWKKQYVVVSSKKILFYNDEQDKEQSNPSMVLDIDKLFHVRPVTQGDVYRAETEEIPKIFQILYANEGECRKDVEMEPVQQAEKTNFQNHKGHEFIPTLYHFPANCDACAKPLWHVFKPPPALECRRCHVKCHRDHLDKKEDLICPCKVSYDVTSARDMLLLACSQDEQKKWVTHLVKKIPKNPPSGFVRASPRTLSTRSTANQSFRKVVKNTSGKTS
Sequence of Glycogen synthase kinase-3 beta (P49841 whole entry): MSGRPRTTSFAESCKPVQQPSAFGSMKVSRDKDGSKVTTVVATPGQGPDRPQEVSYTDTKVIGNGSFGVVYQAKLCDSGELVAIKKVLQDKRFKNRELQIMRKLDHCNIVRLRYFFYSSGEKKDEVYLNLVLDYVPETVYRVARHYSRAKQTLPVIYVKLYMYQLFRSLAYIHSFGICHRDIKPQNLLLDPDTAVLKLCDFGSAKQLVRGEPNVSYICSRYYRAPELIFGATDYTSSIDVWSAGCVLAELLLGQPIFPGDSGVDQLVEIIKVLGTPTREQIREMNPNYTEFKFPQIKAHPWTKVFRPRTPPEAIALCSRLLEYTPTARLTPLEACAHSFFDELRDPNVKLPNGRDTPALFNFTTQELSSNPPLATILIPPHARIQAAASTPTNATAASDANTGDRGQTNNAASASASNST
Sequence of Protein-tyrosine kinase 2-beta (Q14289 whole entry): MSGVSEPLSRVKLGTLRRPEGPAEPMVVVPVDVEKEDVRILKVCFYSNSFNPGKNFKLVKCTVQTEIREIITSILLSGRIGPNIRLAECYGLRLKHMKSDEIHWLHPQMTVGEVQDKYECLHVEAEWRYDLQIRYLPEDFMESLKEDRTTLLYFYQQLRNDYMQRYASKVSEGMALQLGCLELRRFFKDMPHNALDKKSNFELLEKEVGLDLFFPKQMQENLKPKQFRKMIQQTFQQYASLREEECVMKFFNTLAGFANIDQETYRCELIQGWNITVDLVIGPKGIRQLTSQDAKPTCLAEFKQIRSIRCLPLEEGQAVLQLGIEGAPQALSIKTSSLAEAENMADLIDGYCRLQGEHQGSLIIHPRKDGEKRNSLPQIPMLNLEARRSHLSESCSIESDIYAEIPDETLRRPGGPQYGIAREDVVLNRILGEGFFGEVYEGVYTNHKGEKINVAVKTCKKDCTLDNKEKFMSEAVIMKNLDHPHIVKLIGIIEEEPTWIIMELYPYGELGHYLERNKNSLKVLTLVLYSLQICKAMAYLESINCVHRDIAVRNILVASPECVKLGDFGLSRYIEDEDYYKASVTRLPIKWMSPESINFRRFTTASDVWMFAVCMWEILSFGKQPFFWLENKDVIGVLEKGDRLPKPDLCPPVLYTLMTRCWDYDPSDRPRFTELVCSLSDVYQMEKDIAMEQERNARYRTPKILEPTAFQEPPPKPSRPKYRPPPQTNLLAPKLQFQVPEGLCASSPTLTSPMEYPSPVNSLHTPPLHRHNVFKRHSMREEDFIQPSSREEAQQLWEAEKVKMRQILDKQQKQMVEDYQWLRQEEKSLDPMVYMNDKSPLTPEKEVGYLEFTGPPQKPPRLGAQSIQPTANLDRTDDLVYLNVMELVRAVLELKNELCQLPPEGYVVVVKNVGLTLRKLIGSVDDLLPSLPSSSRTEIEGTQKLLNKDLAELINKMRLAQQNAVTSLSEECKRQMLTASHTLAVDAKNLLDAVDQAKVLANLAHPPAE

O=C(Nc1nc2cccc(-c3ccccc3)n2n1)C1CC1
IC50 ([1]; read-out: IC50): 184 nM
Ratio IC50 (Homo sapiens [2]): 2.3
Ratio IC50 (Homo sapiens [3]): 7.1
Ratio IC50 (Homo sapiens [4]): 4.1

COCc1cccc(-c2cccc3nc(NC(=O)C4CC4)nn23)c1
IC50 ([1]; read-out: IC50): 572 nM
Ratio IC50 (Homo sapiens [2]): 0.9
Ratio IC50 (Homo sapiens [3]): 3.8
Ratio IC50 (Homo sapiens [4]): 2.8

COc1ccc(-c2cccc3nc(NS(=O)(=O)C4CC4)nn23)cc1
IC50 ([1]; read-out: IC50): 5740 nM

O=C(Nc1nc2cccc(-c3ccc(Cl)cc3)n2n1)C1CC1
IC50 ([1]; read-out: IC50): 156 nM
Ratio IC50 (Homo sapiens [2]): 3.1
Ratio IC50 (Homo sapiens [3]): 7.4
Ratio IC50 (Homo sapiens [4]): 28.2

O=C(NCCc1ccn(-c2ccccc2)n1)c1ccc(-c2cccc3nc(NC(=O)C4CC4)nn23)cc1
solubility kinetic [5]: 4 µg/mL (≈ 8.14 µM)
fraction unbound [6]: 0.01
IC50 ([1]; read-out: IC50): 0.6 nM
Ratio IC50 (Homo sapiens [2]): 5.3
Ratio IC50 (Homo sapiens [3]): 21
Ratio IC50 (Homo sapiens [4]): 66

CCOc1ccc(-c2nccc3nc(NC(=O)C4CC4)nn23)cc1
IC50 ([1]; read-out: IC50): 418 nM
Ratio IC50 (Homo sapiens [2]): 1.5

CNC(=O)Nc1nc2cccc(-c3ccc(OC)cc3)n2n1
IC50 ([1]; read-out: IC50): 413 nM
Ratio IC50 (Homo sapiens [2]): 0.7

N#CCc1ccccc1NCc1ccc(-c2cccc3nc(NC(=O)C4CC4)nn23)cc1
solubility kinetic [5]: 9.4 µg/mL (≈ 22.2 µM)
fraction unbound [6]: 0.01
IC50 ([1]; read-out: IC50): 1.4 nM
Ratio IC50 (Homo sapiens [2]): 11.4
Ratio IC50 (Homo sapiens [3]): 26
Ratio IC50 (Homo sapiens [4]): 9

O=C(Nc1nc2cccc(-c3ccc(CNC(=O)C(F)(F)F)cc3)n2n1)C1CC1
solubility kinetic [5]: > 80 µg/mL
fraction unbound [6]: 0.17
IC50 [7]: 4470 nM
IC50 [8]: > 30000 nM
remaining at 1 h [9]: 80%
IC50 ([1]; read-out: IC50): 16 nM
Ratio IC50 (Homo sapiens [2]): 2.6
Ratio IC50 (Homo sapiens [3]): 9.5
Ratio IC50 (Homo sapiens [4]): 6.2

CN1CCN(Cc2ccc(-c3cccc4nc(NC(=O)C5CC5)nn34)cc2)CC1
IC50 ([1]; read-out: IC50): > 4000 nM

CCC(=O)Nc1nc2cccc(-c3ccc(OC)cc3)n2n1
IC50 ([1]; read-out: IC50): 1980 nM
Ratio IC50 (Homo sapiens [2]): 0.5

COc1ccc(-c2cccc3nc(N4CCCCC4)nn23)cc1
IC50 ([1]; read-out: IC50): > 10000 nM

O=C(Nc1nc2cccc(-c3cccc4ncccc34)n2n1)C1CC1
IC50 ([1]; read-out: IC50): 2550 nM
Ratio IC50 (Homo sapiens [2]): 0.7
Ratio IC50 (Homo sapiens [3]): 1.5
Ratio IC50 (Homo sapiens [4]): > 1.6

COc1ccc(-c2cccc3nc(NCC4CC4)nn23)cc1
IC50 ([1]; read-out: IC50): > 10000 nM

O=C(Nc1nc2cccc(-c3cn[nH]c3)n2n1)C1CC1
IC50 ([1]; read-out: IC50): 1350 nM
Ratio IC50 (Homo sapiens [2]): 1.1
Ratio IC50 (Homo sapiens [3]): 2.1
Ratio IC50 (Homo sapiens [4]): > 3

O=C(Nc1nc2cccc(-c3cccc(Cl)c3)n2n1)C1CC1
IC50 ([1]; read-out: IC50): 142 nM
Ratio IC50 (Homo sapiens [2]): 1.1
Ratio IC50 (Homo sapiens [3]): 6.7
Ratio IC50 (Homo sapiens [4]): 2.4

N#Cc1ccc(OCC2CN(c3ccc(-c4cccc5nc(NC(=O)C6CC6)nn45)cc3)C2)cc1
IC50 ([1]; read-out: IC50): 147 nM
Ratio IC50 (Homo sapiens [2]): 7.5

COc1ccc(-c2cccc3nc(-c4cccnc4)nn23)cc1
IC50 ([1]; read-out: IC50): > 10000 nM

COc1ccc(-c2cccc3nc(NC(=O)C4CC4)nn23)cc1
IC50 ([1]; read-out: IC50): 70 nM
IC50 [10]: 138 nM
IC50 [11]: 528 nM
IC50 [12]: 519 nM
IC50 [13]: > 5740 nM
IC50 [14]: 7110 nM
IC50 [15]: 24700 nM
IC50 [16]: 4440 nM
IC50 [17]: > 10000 nM
IC50 [18]: > 10000 nM
IC50 [19]: 40000 nM
IC50 [20]: 3180 nM
IC50 [21]: 51000 nM
IC50 [22]: > 10000 nM
IC50 [23]: 2270 nM
IC50 [24]: > 10000 nM
IC50 [25]: > 4000 nM
IC50 [26]: > 10000 nM
Ratio IC50 (Homo sapiens [2]): 2
Ratio IC50 (Homo sapiens [3]): 7.5
Ratio IC50 (Homo sapiens [4]): 7.4

O=C(Nc1nc2nccc(-c3ccccc3)n2n1)C1CC1
IC50 [1]: Not Active

COc1ccc(-c2cccc3nc(NC(=O)C4CC4)nn23)cn1
IC50 ([1]; read-out: IC50): 547 nM
Ratio IC50 (Homo sapiens [2]): 1.5
Ratio IC50 (Homo sapiens [3]): 4.4
Ratio IC50 (Homo sapiens [4]): 6.2

C[C@@H]1CCN(C(=O)CC#N)C[C@@H]1N(C)c1ncnc2[nH]ccc12 [TOFACITINIB]
remaining at 1 h [9]: 27%

COc1ccc(-c2cccc3nc(NC(=O)C(C)C)nn23)cc1
IC50 ([1]; read-out: IC50): > 10000 nM

O=C(Nc1nc2cccc(-c3ccc(NS(=O)(=O)C4CC4)cc3)n2n1)C1CC1
fraction unbound [6]: 0.1

COc1ccc(-c2cccc3nc(N)nn23)cc1
IC50 ([1]; read-out: IC50): 3060 nM
Ratio IC50 (Homo sapiens [2]): 0.6

O=C(Nc1nc2cccc(-c3ccc(CNC4CCS(=O)(=O)C4)cc3)n2n1)C1CC1 (stereo not drawn)
solubility kinetic [5]: > 85 µg/mL
IC50 [7]: 6150 nM
IC50 [8]: > 30000 nM
remaining at 1 h [9]: 85%
IC50 ([1]; read-out: IC50): 41 nM
Ratio IC50 (Homo sapiens [2]): 2.1
Ratio IC50 (Homo sapiens [3]): 8
Ratio IC50 (Homo sapiens [4]): 9.6

CCOc1ccc(-c2cccc3nc(NC(=O)C4CC4)nn23)cc1
IC50 ([1]; read-out: IC50): 27 nM
Ratio IC50 (Homo sapiens [2]): 2

CCOc1ccc(-c2cccn3nc(NC(=O)C4CC4)nc23)cc1
IC50 ([1]; read-out: IC50): 67 nM
Ratio IC50 (Homo sapiens [2]): 2.2

O=C(Nc1nc2cccc(-c3cccc(OCc4ccccc4)c3)n2n1)C1CC1
IC50 ([1]; read-out: IC50): 103 nM
Ratio IC50 (Homo sapiens [2]): 1
Ratio IC50 (Homo sapiens [3]): 3
Ratio IC50 (Homo sapiens [4]): 18

COc1ccccc1-c1cccc2nc(NC(=O)C3CC3)nn12
IC50 ([1]; read-out: IC50): 371 nM
Ratio IC50 (Homo sapiens [2]): 1.5
Ratio IC50 (Homo sapiens [3]): 2
Ratio IC50 (Homo sapiens [4]): 2.8

CCOc1ccc(-c2c(OC)ccc3nc(NC(=O)C4CC4)nn23)cc1
IC50 ([1]; read-out: IC50): 3010 nM
Ratio IC50 (Homo sapiens [2]): > 1

COc1ccc(-c2cccc3nc(Nc4ccc(NC(C)=O)cc4)nn23)cc1
IC50 ([1]; read-out: IC50): 2.8 nM
Ratio IC50 (Homo sapiens [2]): 0.9

CCOc1ccc(-c2cncc3nc(NC(=O)C4CC4)nn23)cc1
IC50 ([1]; read-out: IC50): 3100 nM
Ratio IC50 (Homo sapiens [2]): 1

COc1ccc(-c2cccc3nc(NC(C)=O)nn23)cc1
IC50 ([1]; read-out: IC50): > 4000 nM

O=C(Nc1nc2cccc(-c3ccc(CN4CCC(F)(F)CC4)cc3)n2n1)C1CC1
solubility kinetic [5]: 27 µg/mL (≈ 65.6 µM)
fraction unbound [6]: 0.3
Tmax [27]: 15 min
AUC(0-inf) [28]: 690 ng·h/mL
half-life [29]: 55.2 min
IC50 [7]: 2750 nM
IC50 [8]: > 10000 nM
remaining at 1 h [9]: 26%
IC50 ([1]; read-out: IC50): 27 nM
Ratio IC50 (Homo sapiens [2]): 1.1
Ratio IC50 (Homo sapiens [3]): 8.7
Ratio IC50 (Homo sapiens [4]): 3.2

O=C(Nc1nc2cccc(-c3ccc(Cc4ccc(O)c(CO)c4)cc3)n2n1)C1CC1
solubility kinetic [5]: 28 µg/mL (≈ 67.6 µM)
IC50 ([1]; read-out: IC50): 8.3 nM
Ratio IC50 (Homo sapiens [2]): 1.7

COc1ccc(-c2cc(C(F)(F)F)cn3nc(NC(=O)C4CC4)nc23)cc1
IC50 [1]: Not Active

COc1ccc(-c2cccc3nc(N(C)C)nn23)cc1
IC50 ([1]; read-out: IC50): > 10000 nM

COc1ccc(-c2cccc3nc(NC(=O)C4(C)CC4)nn23)cc1
IC50 ([1]; read-out: IC50): > 10000 nM

Nc1nc2cccc(-c3ccc(CN4CCS(=O)(=O)CC4)cc3)n2n1
IC50 [7]: 11900 nM
IC50 [8]: > 100000 nM

COc1ccc(-c2cccc3nc(NC(=O)c4ccccc4)nn23)cc1
IC50 ([1]; read-out: IC50): > 10000 nM

CC(C)(C)OCc1ccccc1-c1cccc2nc(NC(=O)C3CC3)nn12
IC50 ([1]; read-out: IC50): > 10000 nM

COc1ncc(-c2cccc3nc(NC(=O)C4CC4)nn23)cn1
IC50 ([1]; read-out: IC50): 975 nM
Ratio IC50 (Homo sapiens [2]): 2.1
Ratio IC50 (Homo sapiens [3]): > 4.1
Ratio IC50 (Homo sapiens [4]): > 4.1

COc1ccc(-c2cccc3nc(N(C)C(=O)C4CC4)nn23)cc1
IC50 ([1]; read-out: IC50): > 10000 nM
